From patent publication US20110275559A1, “Long-Acting Y2 and/or Y4 Receptor Agonists” (Novo Nordisk A/S, priority 2008, published 2011) come the findings set out here.

SMILES strings stand for the structures. Like-named read-outs stand apart in the source and are kept apart here. *1 amine or outer side, *2 acyl side, *3 side chain or, on linkers, in order; H or OH if unused. Where a SMILES comes first, the peptide text is derived from it. Side-chain parts run from the residue outwards. The star is where a group is joined. C20 diacid = O=C(O)CCCCCCCCCCCCCCCCCCC(=O)*; C18 diacid = O=C(O)CCCCCCCCCCCCCCCCC(=O)*; γGlu = O=C(O)[C@H](CCC(=O)[*:2])N[*:1]; Trx = NC[C@H]1CC[C@H](C(=O)O)CC1; AEEA = NCCOCCOCC(=O)O Some results are limits rather than exact numbers.

One data set deals with T1, Y4 receptor (Homo sapiens, UniProt P50391).
T1 construct: host or cells: ACTOne HEK-293 cells
Description: Y4 receptor ACTOne based FLIPR assay (cAMP biosensor). Type of data set: cell-based. An excerpt:
ACTOne™ is an easily scaleable cAMP biosensor HTS platform for measurement of Gs and Gi coupled 7™ receptor signalling from BD Biosciences (San Jose, Calif.). The cells express a biosensor developed around a modified rat olfactory cyclic nucleotide gated (CNG) calcium channel—a fairly non-discriminatory ion channel that responds to cAMP and cGMP. The CNG has been engineered to be cAMP selective and thus function as a cAMP responsive biosensor that signals through calcium or membrane potential responsive dyes. Y2 or Y4 receptor expressing ACTOne HEK-293 cells are obtained from BD Biosciences. The cells are loaded with a calcium responsive dye that only distributes in the cytoplasm. Probenecid, an inhibitor of the organic anion transporter is added to prevent the dye from leaving the cell. A phosphodiesterase inhibitor is added to prevent formatted cAMP from being degraded. Isoproterenol (an β1/β2 agonist) is added to activate the adenylate cyclase. When an Y2 or Y4 receptor agonist is added, the adenylate cyclase is inactivated. The decreased calcium concentration in the cytoplasm is then detected as an increase in fluorescence. Together with the test substance, Isoproterenol at a concentration matching EC80, is added to all wells. • The cells are plated out in Greiner 384-well plates. […] The plates are covered with tinfoil to avoid light (the dye can be excited by the daylight, which results in higher baseline and variation). • The FLIPR (FLIPRtetra from Molecular Devices, CA, USA) adds 1 μl sample and 1 μl isoproterenol (0.05 μM final concentration) at the same time. • The fluorescence signal from the wells is measured 330 seconds after sample addition on the FLIPR.

Another data set addresses T2, Y2 receptor (Homo sapiens, UniProt P49146).
T2 construct: host or cells: ACTOne HEK-293 cells
T2 sequence (P49146 1-381): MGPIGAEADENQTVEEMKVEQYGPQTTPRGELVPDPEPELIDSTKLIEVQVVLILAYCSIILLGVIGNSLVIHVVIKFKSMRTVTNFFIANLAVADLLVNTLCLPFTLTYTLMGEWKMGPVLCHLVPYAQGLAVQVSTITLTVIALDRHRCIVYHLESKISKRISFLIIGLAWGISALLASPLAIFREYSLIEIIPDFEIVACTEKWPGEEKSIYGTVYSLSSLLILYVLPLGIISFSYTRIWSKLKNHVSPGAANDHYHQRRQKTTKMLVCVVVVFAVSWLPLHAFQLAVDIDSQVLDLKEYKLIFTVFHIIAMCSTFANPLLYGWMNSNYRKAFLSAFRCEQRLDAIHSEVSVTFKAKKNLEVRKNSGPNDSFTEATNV
Description: Y2 receptor ACTOne based FLIPR assay (cAMP biosensor). The class given is cell-based.

A further data set is described as follows: in vivo. To be noted: Göttingen, minipig. The procedure, abridged: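 Catheterised mini-pigs received compound i.v. at 10 nmol/kg in pH 4.0 phosphate/NaCl/tween vehicle, or alternatively i.v. or s.c. at 1–30 nmol/kg in pH 8.0 K2HPO4/tween. Stabilised plasma was sampled up to 13 days and assayed by LC-MS (LLOQ 2 nM). Half-life came from non-compartmental analysis of individual animal profiles.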

The mark [1] stands for this setting: Table 2, PP analogues, ACTOne HEK-293 cells, read-out: Y4 cAMP EC50.
Where [2] appears, read: Table 2, PP analogues, ACTOne HEK-293 cells, read-out: Y2 cAMP EC50.

T1 sequence (P50391 whole entry): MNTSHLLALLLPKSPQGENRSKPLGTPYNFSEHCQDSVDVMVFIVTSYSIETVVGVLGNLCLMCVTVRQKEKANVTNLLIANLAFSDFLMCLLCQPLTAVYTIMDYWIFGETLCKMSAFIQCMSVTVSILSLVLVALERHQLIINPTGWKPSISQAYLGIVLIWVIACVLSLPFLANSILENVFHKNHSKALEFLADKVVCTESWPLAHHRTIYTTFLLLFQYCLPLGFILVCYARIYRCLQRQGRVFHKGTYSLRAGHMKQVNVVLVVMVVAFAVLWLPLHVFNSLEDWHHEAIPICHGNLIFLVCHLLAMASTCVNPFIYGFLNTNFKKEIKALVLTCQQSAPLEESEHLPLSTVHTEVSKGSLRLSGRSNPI

With `CC[C@H](C)[C@H](NC(=O)[C@H](Cc1ccc(O)cc1)NC(=O)[C@H](CCCNC(=N)N)NC(=O)[C@H](CCCNC(=N)N)NC(=O)[C@H](CC(C)C)NC(=O)[C@H](CC(=O)O)NC(=O)[C@H](C)NC(=O)[C@H](C)NC(=O)[C@H](Cc1ccc(O)cc1)NC(=O)[C@H](CCC(N)=O)NC(=O)[C@H](C)NC(=O)[C@H](CC(C)C)NC(=O)[C@H](CCC(N)=O)NC(=O)[C@H](CCC(=O)O)NC(=O)[C@@H]1CCCN1C(=O)[C@@H](NC(=O)[C@H](C)NC(=O)[C@H](CC(N)=O)NC(=O)[C@H](CC(=O)O)NC(=O)CNC(=O)[C@@H]1CCCN1C(=O)[C@H](Cc1ccc(O)cc1)NC(=O)[C@@H](NC(=O)[C@@H]1CCCN1C(=O)[C@H](CCC(=O)O)NC(=O)[C@H](CC(C)C)NC(=O)[C@@H]1CCCN1C(=O)COCCOCCNC(=O)COCCOCCNC(=O)CC[C@H](NC(=O)CCCCCCCCCCCCCCCCC(=O)O)C(=O)O)C(C)C)[C@@H](C)O)C(=O)N[C@@H](CC(N)=O)C(=O)N[C@@H](CC(C)C)C(=O)N[C@@H](CC(C)C)C(=O)N[C@H](C(=O)N[C@@H](CCCNC(=N)N)C(=O)N1CCC[C@H]1C(=O)N[C@@H](CCCNC(=N)N)C(=O)N[C@@H](Cc1ccc(O)cc1)C(N)=O)[C@@H](C)O` [SEQ ID NO: 55, N-alfa-[2-(2-{2-[2-(2-{2-[(S)-4-Carboxy-4-(17-carboxyheptadecanoylamino)butyrylamino]ethoxy}ethoxy)acetylamino]-ethoxy}ethoxy)acetyl][Leu17,Leu30]hPP2-36] ({C18 diacid-γGlu-AEEA-AEEA}-PLEPVYPGDNATPEQLAQYAADLRRYINLLTRPRY-NH2; C-terminus assumed), the EC50 on Y4 receptor (setting [1]) is 1 nM; at Y2 receptor (setting [2]), > 1000 nM. Also, in the data set “in vivo” (iv, 7 nmol/kg), the half-life is 29 h.

`CC[C@H](C)[C@H](NC(=O)[C@H](Cc1ccc(O)cc1)NC(=O)[C@H](CCCNC(=N)N)NC(=O)[C@H](CCCNC(=N)N)NC(=O)[C@H](CC(C)C)NC(=O)[C@H](CC(=O)O)NC(=O)[C@H](C)NC(=O)[C@H](C)NC(=O)[C@H](Cc1ccc(O)cc1)NC(=O)[C@H](CCC(N)=O)NC(=O)[C@H](C)NC(=O)[C@H](CC(C)C)NC(=O)[C@H](CCC(N)=O)NC(=O)[C@H](CCC(=O)O)NC(=O)[C@@H]1CCCN1C(=O)[C@@H](NC(=O)[C@H](C)NC(=O)[C@H](CCCCNC(=O)COCCOCCNC(=O)COCCOCCNC(=O)CC[C@H](NC(=O)CCCCCCCCCCCCCCCCC(=O)O)C(=O)O)NC(=O)[C@H](CC(=O)O)NC(=O)CNC(=O)[C@@H]1CCCN1C(=O)[C@H](Cc1ccc(O)cc1)NC(=O)[C@@H](NC(=O)[C@@H]1CCCN1C(=O)[C@H](CCC(=O)O)NC(=O)[C@H](CC(C)C)NC(=O)[C@@H]1CCCN1)C(C)C)[C@@H](C)O)C(=O)N[C@@H](CC(N)=O)C(=O)N[C@@H](CC(C)C)C(=O)N[C@@H](CC(C)C)C(=O)N[C@H](C(=O)N[C@@H](CCCNC(=N)N)C(=O)N1CCC[C@H]1C(=O)N[C@@H](CCCNC(=N)N)C(=O)N[C@@H](Cc1ccc(O)cc1)C(N)=O)[C@@H](C)O` [SEQ ID NO: 30, N-epsilon11-[2-(2-{2-[2-(2-{2-[(S)-4-Carboxy-4-(17-carboxyheptadecanoylamino)butyrylamino]ethoxy}ethoxy)acetylamino]-ethoxy}ethoxy)acetyl][Lys11,Leu17,Leu30]hPP2-36] (H-PLEPVYPGDK([AEEA-AEEA-γGlu-C18 diacid])ATPEQLAQYAADLRRYINLLTRPRY-NH2; N-terminus and C-terminus assumed): the EC50 at Y4 receptor (setting [1]) is 1 nM; on Y2 receptor (setting [2]), > 1000 nM. The same molecule gave a half-life in “in vivo” (iv, […]) of 22 h.

On to `CC[C@H](C)[C@H](NC(=O)[C@H](Cc1ccc(O)cc1)NC(=O)[C@H](CCCNC(=N)N)NC(=O)[C@H](CCCNC(=N)N)NC(=O)[C@H](CC(C)C)NC(=O)[C@H](CC(=O)O)NC(=O)[C@H](C)NC(=O)[C@H](C)NC(=O)[C@H](Cc1ccc(O)cc1)NC(=O)[C@H](CCC(N)=O)NC(=O)[C@H](C)NC(=O)[C@H](CC(C)C)NC(=O)[C@H](CCC(N)=O)NC(=O)[C@H](CCC(=O)O)NC(=O)[C@@H]1CCCN1C(=O)[C@@H](NC(=O)[C@H](C)NC(=O)[C@H](CC(N)=O)NC(=O)[C@H](CC(=O)O)NC(=O)CNC(=O)[C@@H]1CCCN1C(=O)[C@H](Cc1ccc(O)cc1)NC(=O)[C@@H](NC(=O)[C@@H]1CCCN1C(=O)[C@H](CCC(=O)O)NC(=O)[C@H](CC(C)C)NC(=O)[C@@H]1CCCN1)C(C)C)[C@@H](C)O)C(=O)N[C@@H](CC(N)=O)C(=O)N[C@@H](CC(C)C)C(=O)N[C@@H](CC(C)C)C(=O)N[C@H](C(=O)N[C@@H](CCCCNC(=O)COCCOCCNC(=O)COCCOCCNC(=O)CC[C@H](NC(=O)[C@H]1CC[C@H](CNC(=O)CCCCCCCCCCCCCCCCCCC(=O)O)CC1)C(=O)O)C(=O)N1CCC[C@H]1C(=O)N[C@@H](CCCNC(=N)N)C(=O)N[C@@H](Cc1ccc(O)cc1)C(N)=O)[C@@H](C)O` [SEQ ID NO: 42, N-epsilon33-[2-(2-{2-[2-(2-{2-[(S)-4-Carboxy-4-({trans-4-[(19-carboxynonadecanoylamino)methyl]cyclohexanecarbonyl}amino)butyrylamino]-ethoxy}ethoxy)acetylamino]ethoxy}ethoxy)acetyl][Leu17,Leu30,Lys33]hPP2-36] (H-PLEPVYPGDNATPEQLAQYAADLRRYINLLTK([AEEA-AEEA-γGlu-Trx-C20 diacid])PRY-NH2), for which the EC50 on Y4 receptor and on Y2 receptor was > 1000 nM each time. Also, the half-life in “in vivo” (in vivo, iv, 7 nmol/kg) was 116 h; in “in vivo” (male, in vivo, sc, 7 nmol/kg), 167 h.

Take `CC[C@H](C)[C@H](NC(=O)[C@H](Cc1ccc(O)cc1)NC(=O)[C@H](CCCNC(=N)N)NC(=O)[C@H](CCCCNC(=O)COCCOCCNC(=O)COCCOCCNC(=O)CC[C@H](NC(=O)[C@H]1CC[C@H](CNC(=O)CCCCCCCCCCCCCCCCCCC(=O)O)CC1)C(=O)O)NC(=O)[C@H](CC(C)C)NC(=O)[C@H](CC(=O)O)NC(=O)[C@H](C)NC(=O)[C@H](C)NC(=O)[C@H](Cc1ccc(O)cc1)NC(=O)[C@H](CCC(N)=O)NC(=O)[C@H](C)NC(=O)[C@H](CC(C)C)NC(=O)[C@H](CCC(N)=O)NC(=O)[C@H](CCC(=O)O)NC(=O)[C@@H]1CCCN1C(=O)[C@@H](NC(=O)[C@H](C)NC(=O)[C@H](CC(N)=O)NC(=O)[C@H](CC(=O)O)NC(=O)CNC(=O)[C@@H]1CCCN1C(=O)[C@H](Cc1ccc(O)cc1)NC(=O)[C@@H](NC(=O)[C@@H]1CCCN1C(=O)[C@H](CCC(=O)O)NC(=O)[C@H](CC(C)C)NC(=O)[C@@H]1CCCN1)C(C)C)[C@@H](C)O)C(=O)N[C@@H](CC(N)=O)C(=O)N[C@@H](CC(C)C)C(=O)N[C@@H](CC(C)C)C(=O)N[C@H](C(=O)N[C@@H](CCCNC(=N)N)C(=O)N1CCC[C@H]1C(=O)N[C@@H](CCCNC(=N)N)C(=O)N[C@@H](Cc1ccc(O)cc1)C(N)=O)[C@@H](C)O` [SEQ ID NO: 50, N-epsilon25-[2-(2-{2-[2-(2-{2-[(S)-4-Carboxy-4-({trans-4-[(19-carboxynonadecanoylamino)methyl]cyclohexanecarbonyl}amino)butyrylamino]-ethoxy}ethoxy)acetylamino]ethoxy}ethoxy)acetyl][Leu17,Lys25,Leu30]hPP2-36] (H-PLEPVYPGDNATPEQLAQYAADLK([AEEA-AEEA-γGlu-Trx-C20 diacid])RYINLLTRPRY-NH2): the EC50 at Y4 receptor (setting [1]) and at Y2 receptor (setting [2]) was > 1000 nM each time. In the data set “in vivo” (iv, 10 nmol/kg), this molecule showed a half-life of 82 h.
